Laboratory results reported in patent US20220347167A1, “A NEW TREATMENT FOR MEIBOMIAN GLAND DYSFUNCTION” (The Schepens Eye Research Institute, Inc., priority 2019, published 2022).

Test system: apolipoprotein E-deficient (ApoE −/−) mice
Assay: MGD model in ApoE −/− mice: tear volume and meibomian gland size
Assay type: in vivo, mouse
Conditions: Roxa 10 mg/kg subcutaneous, three times per week for 12 weeks
Protocol: Two groups of ApoE KO mice (vehicle-treated ApoE −/−, as control, and Roxa-treated ApoE −/−), as well as wild-type C57BL/6J mice, were measured for weight, tear volume, corneal fluorescein staining and tear breakup time (TBUT). ApoE −/− mice were randomly divided into 2 groups (n=8 mice/group): control and Roxa-treated. The ApoE−/− mice were treated with vehicle control (2% DMSO in sterile saline, subcutaneous injection) or Roxa (10 mg/kg, subcutaneous injection). The injections were administrated three times/week; on Monday, Wednesday, and Friday mornings; for 12 weeks. At the end of the study, the weight, tear volume, corneal fluorescein staining and tear breakup time (TBUT) were weighted again for comparison. The bar chart in FIG. 6 compares mean tear volume of each group of mice after treatment.
After the Roxa treatment, as described in FIG. 6, the eyelids of each mouse were dissected to assess meibomian gland size and morphology. […]
At the beginning of the study, the 16 ApoE−/− mice and 4 wild-type (WT) C57BL/6J mice, 12 weeks of age, were measured for their weight, tear volume, corneal fluorescein staining and tear breakup time (TBUT). […] At the end of the study, the weight, tear volume, corneal fluorescein staining and tear breakup time (TBUT) were measured again. […]

With `Cc1nc(C(=O)NCC(=O)O)c(O)c2ccc(Oc3ccccc3)cc12` [Roxa, roxadustat] as the compound, how does the tear volume (vs control group and WT mice, p<0.01) read?
Its tear volume is “significantly increased”.

What about the “meibomian gland loss in the mice eyelids (MG area)” value (vs control group, p<0.05) of the same compound?
The value was “significantly reduced”.
